In patent publication US20260232578A1, “COMPOSITIONS AND METHODS FOR TRANSMUCOSAL ABSORPTION” (Tonix Pharma Limited, priority 2012, published 2026):

What was measured:
5-HT1A receptor = target: T1, 5-HT1A receptor (Homo sapiens, UniProt P08908); test: Equilibrium receptor binding, recombinant human receptor
T1 construct: expressed in transfected cells
T1 sequence (P08908 1-422): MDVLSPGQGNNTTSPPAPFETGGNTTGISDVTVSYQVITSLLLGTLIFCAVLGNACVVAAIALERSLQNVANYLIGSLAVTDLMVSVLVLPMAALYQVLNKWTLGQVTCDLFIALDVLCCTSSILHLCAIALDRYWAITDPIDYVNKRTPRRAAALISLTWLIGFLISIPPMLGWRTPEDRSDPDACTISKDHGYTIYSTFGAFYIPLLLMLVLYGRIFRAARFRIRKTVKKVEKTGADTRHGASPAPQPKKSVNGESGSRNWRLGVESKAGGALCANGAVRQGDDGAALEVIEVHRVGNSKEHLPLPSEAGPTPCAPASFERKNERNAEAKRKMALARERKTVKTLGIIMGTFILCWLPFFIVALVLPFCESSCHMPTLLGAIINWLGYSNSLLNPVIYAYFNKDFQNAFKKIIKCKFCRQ

[1] = target: T2, adrenergic α1A receptor (Alpha1A) (Homo sapiens, UniProt P35348); test: as above; details: for Ki: Alpha1A
T2 construct: expressed in transfected cells
T2 sequence (P35348 1-466): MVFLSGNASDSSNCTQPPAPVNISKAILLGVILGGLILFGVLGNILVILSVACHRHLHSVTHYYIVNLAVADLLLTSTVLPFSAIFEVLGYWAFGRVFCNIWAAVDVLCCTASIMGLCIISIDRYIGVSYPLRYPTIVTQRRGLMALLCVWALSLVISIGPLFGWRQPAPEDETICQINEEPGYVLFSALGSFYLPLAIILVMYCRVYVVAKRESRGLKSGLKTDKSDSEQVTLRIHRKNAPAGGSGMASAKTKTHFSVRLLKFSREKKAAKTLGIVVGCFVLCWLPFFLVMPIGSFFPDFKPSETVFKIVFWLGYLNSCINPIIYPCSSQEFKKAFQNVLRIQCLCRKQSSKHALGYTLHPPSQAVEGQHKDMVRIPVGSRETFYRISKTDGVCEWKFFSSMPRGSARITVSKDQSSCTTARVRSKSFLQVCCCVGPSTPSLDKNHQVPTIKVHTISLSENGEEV

dopamine D1 receptor = target: T3, dopamine D1 receptor (Homo sapiens, UniProt P21728); test: as above
T3 construct: expressed in transfected cells
T3 sequence (P21728 whole entry): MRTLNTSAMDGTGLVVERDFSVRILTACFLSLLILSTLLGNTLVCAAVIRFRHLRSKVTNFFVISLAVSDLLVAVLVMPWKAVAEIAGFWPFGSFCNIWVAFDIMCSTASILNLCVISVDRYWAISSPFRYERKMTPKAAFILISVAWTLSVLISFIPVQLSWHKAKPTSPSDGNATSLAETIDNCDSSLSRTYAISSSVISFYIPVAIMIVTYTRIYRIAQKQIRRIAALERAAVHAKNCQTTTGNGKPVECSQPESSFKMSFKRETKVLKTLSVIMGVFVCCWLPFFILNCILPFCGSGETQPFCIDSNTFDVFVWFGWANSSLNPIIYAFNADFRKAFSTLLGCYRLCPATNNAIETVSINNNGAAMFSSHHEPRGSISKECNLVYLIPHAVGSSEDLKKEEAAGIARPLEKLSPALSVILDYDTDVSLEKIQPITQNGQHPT

D3 = target: T4, D3 (Homo sapiens, UniProt P35462); test: as above
T4 construct: expressed in transfected cells
T4 sequence (P35462 whole entry): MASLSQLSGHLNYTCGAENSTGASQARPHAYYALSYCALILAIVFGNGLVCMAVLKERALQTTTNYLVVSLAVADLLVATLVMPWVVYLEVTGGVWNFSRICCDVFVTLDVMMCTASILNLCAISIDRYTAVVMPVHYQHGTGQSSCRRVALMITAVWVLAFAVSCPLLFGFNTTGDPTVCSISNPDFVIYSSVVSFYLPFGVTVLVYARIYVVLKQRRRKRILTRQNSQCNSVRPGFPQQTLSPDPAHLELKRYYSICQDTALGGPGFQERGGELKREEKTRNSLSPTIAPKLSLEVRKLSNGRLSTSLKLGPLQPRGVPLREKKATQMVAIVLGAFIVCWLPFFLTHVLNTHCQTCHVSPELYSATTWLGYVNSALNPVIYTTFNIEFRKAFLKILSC

D4.4 = target: T5, D4.4 (Homo sapiens, UniProt P21917); test: as above
T5 construct: expressed in transfected cells
T5 sequence (P21917 whole entry): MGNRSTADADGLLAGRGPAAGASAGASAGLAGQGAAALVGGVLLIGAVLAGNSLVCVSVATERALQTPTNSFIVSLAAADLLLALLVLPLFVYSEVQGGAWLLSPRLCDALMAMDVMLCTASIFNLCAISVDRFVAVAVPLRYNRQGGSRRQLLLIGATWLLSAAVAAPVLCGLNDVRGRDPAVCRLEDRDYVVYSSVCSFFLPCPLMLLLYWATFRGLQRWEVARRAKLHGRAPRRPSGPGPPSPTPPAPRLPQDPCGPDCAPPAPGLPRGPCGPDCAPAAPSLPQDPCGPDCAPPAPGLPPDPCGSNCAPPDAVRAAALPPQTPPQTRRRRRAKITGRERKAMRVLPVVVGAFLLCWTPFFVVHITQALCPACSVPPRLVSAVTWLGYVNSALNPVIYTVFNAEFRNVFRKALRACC

[2] = target: T6, adrenergic alpha-2A receptor (Homo sapiens, UniProt P08913); test: Functional antagonism, ligand-induced intracellular calcium mobilization; format: cell-based; details: read-out: IC50, functional antagonist
T6 construct: expressed in transfected cells
T6 sequence (P08913 whole entry): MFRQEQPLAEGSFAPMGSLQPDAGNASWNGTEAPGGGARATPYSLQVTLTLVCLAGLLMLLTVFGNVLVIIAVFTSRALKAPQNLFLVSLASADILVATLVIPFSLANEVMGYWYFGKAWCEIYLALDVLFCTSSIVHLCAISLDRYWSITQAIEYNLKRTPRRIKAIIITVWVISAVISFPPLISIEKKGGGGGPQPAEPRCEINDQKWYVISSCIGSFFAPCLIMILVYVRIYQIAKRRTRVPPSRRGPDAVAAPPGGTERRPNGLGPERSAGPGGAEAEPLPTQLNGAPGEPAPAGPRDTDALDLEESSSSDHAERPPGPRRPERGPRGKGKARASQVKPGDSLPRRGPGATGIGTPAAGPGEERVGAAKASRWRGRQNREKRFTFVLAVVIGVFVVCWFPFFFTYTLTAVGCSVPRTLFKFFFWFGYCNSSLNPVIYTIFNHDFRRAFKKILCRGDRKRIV
Experimental: Quantitation was based on peak area ratio of the analytes versus their stable labeled internal standards. A weighted (1/C2), linear regression was performed to determine the concentration of the analytes. All regressions and figures presented in this validation report were generated by MDS Sciex Analyst version 1.4.2 and Thermo Electron Corporation Watson LIMS software, version 7.0.0.01b. […] Select receptors were analyzed in ligand-induced intracellular calcium mobilization.

5-HT2A [3] = target: T7, 5-HT2A (Homo sapiens, UniProt P28223); test: G-protein-independent signal transduction, β-arrestin signaling; format: cell-based; details: for IC50: β-arrestin signaling, read-out: IC50, functional antagonist
T7 construct: expressed in transfected cells
T7 sequence (P28223 whole entry): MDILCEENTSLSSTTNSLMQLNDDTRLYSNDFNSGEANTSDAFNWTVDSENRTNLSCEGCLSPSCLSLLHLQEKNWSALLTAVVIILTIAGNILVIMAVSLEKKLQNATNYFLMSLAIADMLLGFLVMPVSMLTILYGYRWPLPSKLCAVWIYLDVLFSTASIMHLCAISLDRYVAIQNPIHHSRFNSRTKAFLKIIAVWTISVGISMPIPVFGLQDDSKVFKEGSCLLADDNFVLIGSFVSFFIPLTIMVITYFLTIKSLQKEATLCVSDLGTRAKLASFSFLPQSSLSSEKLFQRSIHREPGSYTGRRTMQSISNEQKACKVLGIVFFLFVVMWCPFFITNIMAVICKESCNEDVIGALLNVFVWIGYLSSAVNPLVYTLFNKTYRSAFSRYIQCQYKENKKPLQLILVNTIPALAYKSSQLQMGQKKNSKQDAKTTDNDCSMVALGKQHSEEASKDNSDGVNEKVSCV

adrenergic α1B receptor = target: T8, adrenergic α1B receptor (Homo sapiens, UniProt P35368); test: as above; format: cell-based; details: for IC50: α1B, β-arrestin signaling, read-out: IC50, functional antagonist
T8 construct: expressed in transfected cells
T8 sequence (P35368 1-520): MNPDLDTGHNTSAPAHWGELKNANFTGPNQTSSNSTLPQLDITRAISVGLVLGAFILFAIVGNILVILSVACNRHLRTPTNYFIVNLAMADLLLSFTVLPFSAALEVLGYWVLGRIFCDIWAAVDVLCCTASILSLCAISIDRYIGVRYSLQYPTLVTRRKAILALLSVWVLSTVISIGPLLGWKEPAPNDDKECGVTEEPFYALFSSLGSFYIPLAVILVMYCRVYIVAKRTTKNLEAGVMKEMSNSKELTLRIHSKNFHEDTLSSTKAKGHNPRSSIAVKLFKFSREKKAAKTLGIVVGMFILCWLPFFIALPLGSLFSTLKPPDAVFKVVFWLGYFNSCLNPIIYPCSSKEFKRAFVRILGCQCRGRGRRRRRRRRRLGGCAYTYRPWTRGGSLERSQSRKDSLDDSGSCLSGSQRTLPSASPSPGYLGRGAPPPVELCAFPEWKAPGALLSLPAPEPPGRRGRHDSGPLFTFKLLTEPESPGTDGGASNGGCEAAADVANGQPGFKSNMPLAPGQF

5-HT2A [4] = target: T7, 5-HT2A; test: G-protein-dependent signal transduction, turnover of inositol triphosphate (IP); format: cell-based; details: read-out: IC50 (nM) (Antagonist)
5-HT2B = target: T9, 5-HT2B (Homo sapiens, UniProt P41595); test: as above; format: cell-based; details: read-out: IC50 (nM) (Antagonist)
T9 construct: expressed in transfected cells
T9 sequence (P41595 whole entry): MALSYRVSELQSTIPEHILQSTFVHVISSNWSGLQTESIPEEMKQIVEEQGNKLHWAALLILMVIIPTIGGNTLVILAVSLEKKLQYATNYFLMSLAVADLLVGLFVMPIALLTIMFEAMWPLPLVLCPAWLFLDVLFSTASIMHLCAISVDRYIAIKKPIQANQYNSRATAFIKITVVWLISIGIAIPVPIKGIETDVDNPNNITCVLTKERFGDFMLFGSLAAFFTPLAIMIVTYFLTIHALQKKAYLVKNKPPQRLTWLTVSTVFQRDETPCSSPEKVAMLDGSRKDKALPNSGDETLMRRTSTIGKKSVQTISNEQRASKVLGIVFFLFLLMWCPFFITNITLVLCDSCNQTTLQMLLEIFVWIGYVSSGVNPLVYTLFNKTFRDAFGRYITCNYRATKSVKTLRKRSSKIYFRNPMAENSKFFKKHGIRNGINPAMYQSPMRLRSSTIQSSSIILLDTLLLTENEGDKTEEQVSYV

muscarinic M1 receptor = target: T10, muscarinic M1 receptor (Homo sapiens, UniProt P11229); test: biochemical
T10 sequence (P11229 1-460): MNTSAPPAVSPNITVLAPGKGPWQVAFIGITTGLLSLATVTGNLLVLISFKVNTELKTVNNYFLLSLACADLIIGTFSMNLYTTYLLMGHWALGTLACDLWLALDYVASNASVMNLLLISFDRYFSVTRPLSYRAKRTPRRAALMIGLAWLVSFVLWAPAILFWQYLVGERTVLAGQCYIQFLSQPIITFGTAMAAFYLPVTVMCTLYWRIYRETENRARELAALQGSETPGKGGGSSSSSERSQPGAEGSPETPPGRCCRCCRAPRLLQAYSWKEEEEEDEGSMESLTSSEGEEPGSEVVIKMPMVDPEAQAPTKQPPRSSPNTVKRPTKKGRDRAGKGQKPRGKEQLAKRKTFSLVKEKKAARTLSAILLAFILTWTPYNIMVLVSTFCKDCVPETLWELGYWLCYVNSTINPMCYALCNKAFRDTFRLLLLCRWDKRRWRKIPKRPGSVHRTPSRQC

5-HT6 [5] = target: T11, 5-HT6 (Homo sapiens, UniProt P50406); test: Equilibrium receptor binding, recombinant human receptor; design: expressed in transfected cells
T11 sequence (P50406 whole entry): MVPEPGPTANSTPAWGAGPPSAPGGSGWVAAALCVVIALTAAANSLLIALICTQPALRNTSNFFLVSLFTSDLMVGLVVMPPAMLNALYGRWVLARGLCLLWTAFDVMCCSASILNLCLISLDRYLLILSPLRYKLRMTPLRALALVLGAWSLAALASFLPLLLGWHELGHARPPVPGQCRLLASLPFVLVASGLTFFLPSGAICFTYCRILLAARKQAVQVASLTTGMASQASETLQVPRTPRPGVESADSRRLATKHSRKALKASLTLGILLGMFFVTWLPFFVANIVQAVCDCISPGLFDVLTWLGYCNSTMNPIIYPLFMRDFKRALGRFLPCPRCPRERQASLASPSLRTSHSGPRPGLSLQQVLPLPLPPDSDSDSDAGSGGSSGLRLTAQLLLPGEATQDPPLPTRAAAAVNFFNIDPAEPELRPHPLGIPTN

5-HT6 [6] = target: T11, 5-HT6; test: Functional antagonism (Table 69)
α2B = α2B (Homo sapiens, UniProt P18089); test: Functional antagonism, cAMP production
Sequence of α2B (P18089 whole entry): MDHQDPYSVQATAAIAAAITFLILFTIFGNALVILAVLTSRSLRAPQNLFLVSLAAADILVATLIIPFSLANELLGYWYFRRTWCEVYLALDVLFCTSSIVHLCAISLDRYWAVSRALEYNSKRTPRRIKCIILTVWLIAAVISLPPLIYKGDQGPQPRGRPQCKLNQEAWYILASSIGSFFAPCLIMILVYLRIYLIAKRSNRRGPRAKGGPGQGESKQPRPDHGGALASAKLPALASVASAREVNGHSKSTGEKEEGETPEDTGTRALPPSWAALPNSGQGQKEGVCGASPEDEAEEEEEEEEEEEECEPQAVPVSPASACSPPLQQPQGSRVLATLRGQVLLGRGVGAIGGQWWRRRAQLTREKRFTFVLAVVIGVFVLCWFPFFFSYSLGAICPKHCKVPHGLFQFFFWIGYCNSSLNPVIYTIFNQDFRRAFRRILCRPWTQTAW

Compound	Ki (5-HT1A receptor) [nM]	Ki [1] [nM]	Ki (dopamine D1 receptor) [nM]	Ki (D3) [nM]	Ki (D4.4) [nM]	IC50 [2] [nM]	IC50 (5-HT2A [3]) [nM]	IC50 (adrenergic α1B receptor) [nM]	IC50 (5-HT2A [4]) [nM]	IC50 (5-HT2B) [nM]	Ki (muscarinic M1 receptor) [nM]	Ki (5-HT6 [5]) [nM]	IC50 (5-HT6 [6]) [nM]	IC50 (α2B) [nM]	Hill plot ratio (Hill slope) (5-HT1A receptor; equilibrium binding)	Hill plot ratio (Hill slope) ([1]; equilibrium binding, α-1A)	Hill plot ratio (Hill slope) (dopamine D1 receptor; equilibrium binding)	Four parameter Hill slope (or fit slope) ratio; β-arrestin signaling (5-HT2A [3])	Four parameter Hill slope (or fit slope) ratio; β-arrestin signaling (adrenergic α1B receptor; α-1B)
CN(C)CCC=C1c2ccccc2C=Cc2ccccc21 [cyclobenzaprine, 3-(5H-dibenzo[a,d]cyclohepten-5-ylidene)-N,N-dimethyl-1-propanamine]	1100	5.6	12	34	180	4300	99	144	210	760	7.9	480	2000	9800	–	–	–	–	–
CNCCC=C1c2ccccc2C=Cc2ccccc21 [norcyclobenzaprine, 3-(5H-dibenzo[a,d]cyclohepten-5-ylidene)-N-methyl-1-propanamine]	76	34	57	98	250	6400	181	173	450	1400	30	1400	2800	41000	4.07	1.16	1.15	1.11	0.70
